Read-outs that look alike come from different tables or passages of the source.
[1] = Part 1, pooled active, listed as evobrutinib

Procedure: A randomized, double-blind, placebo-controlled trial conducted in healthy volunteers. […] Written informed consent was obtained from all participants.
Following completion of each dose cohort in both parts of the study, a safety monitoring committee (SMC) decided whether protocol-defined dose escalation to the next level was appropriate to a maximum of 500 mg in Part 1, or to the highest safe and tolerated dose or highest dose from Part 1 in Part 2, based on all safety data and other available data (including PK and PD data). […] Other safety data (e.g., hematology parameters) were also taken into consideration for dose escalation decisions as a matter of course.
TEAEs and SAEs were recorded from time of informed consent until study completion. […] Assessment of severity considered the Toxicity Grading Scale for Healthy Adult and Adolescent Volunteers Enrolled in Preventative Vaccine Clinical Trials. Data were summarized using descriptive statistics.

## C=CC(=O)N1CCC(CNc2ncnc(N)c2-c2ccc(Oc3ccccc3)cc2)CC1 [Evobrutinib, 1-(4-(((6-amino-5-(4-phenoxyphenyl)pyrimidin-4-yl)amino)methyl)piperidin-1-yl)prop-2-en-1-one]
Part 1
  Severity of TEAEs: mild (Grade 1) except in one subject in the 200 mg treatment group
Part 1, all evobrutinib doses
  Subjects with contact dermatitis at locations of ECG pads: 5.6%
  Subjects with headache: 5.6%
Part 1, one subject in the 200 mg treatment group
  Dose-limiting TEAE: Grade 4 increased lipase in combination with Grade 3 increased amylase
Part 1, pooled active
  Abdominal pain, subjects: 0 (0.0) n (%)
  Amylase increased, number of TEAEs: [1]
  Amylase increased, subjects: 1 (2.8) n (%)
  Application site pruritus (due to ECG stickers), subjects: 0 (0.0) n (%)
  Back pain, number of TEAEs: [1]
  Back pain, subjects: 1 (2.8) n (%)
  Contact dermatitis, number of TEAEs: [2]
  Contact dermatitis, subjects: 2 (5.6) n (%)
  Dizziness, number of TEAEs: [1]
  Dizziness, subjects: 1 (2.8) n (%)
  Dry eye, number of TEAEs: [1]
  Dry eye, subjects: 1 (2.8) n (%)
  Dry mouth, subjects: 0 (0.0) n (%)
  Dyspepsia, number of TEAEs: [1]
  Dyspepsia, subjects: 1 (2.8) n (%)
  Excoriation, number of TEAEs: [1]
  Excoriation, subjects: 1 (2.8) n (%)
  Headache, number of TEAEs: [3]
  Headache, subjects: 2 (5.6) n (%)
  Lipase increased, number of TEAEs: [1]
  Lipase increased, subjects: 1 (2.8) n (%)
  Multiple injuries, number of TEAEs: [1]
  Multiple injuries, subjects: 1 (2.8) n (%)
  Nasal congestion, number of TEAEs: [1]
  Nasal congestion, subjects: 1 (2.8) n (%)
  Noncardiac chest pain, subjects: 0 (0.0) n (%)
  Odynophagia, number of TEAEs: [1]
  Odynophagia, subjects: 1 (2.8) n (%)
  Overall total TEAEs, subjects: 9 (25.5) n (%)
  Overall total, number of TEAEs: [15]
  Upper respiratory tract infection, subjects: 0 (0.0) n (%)
[1]
  Contact dermatitis, number of TEAEs: two
  Headache, number of TEAEs: three
  Overall total, number of TEAEs: 15
Part 1, single dose 25 mg
  Abdominal pain, subjects: 0 (0.0) n (%)
  Amylase increased, subjects: 0 (0.0) n (%)
  Application site pruritus (due to ECG stickers), subjects: 0 (0.0) n (%)
  Back pain, subjects: 0 (0.0) n (%)
  Contact dermatitis, subjects: 0 (0.0) n (%)
  Dizziness, subjects: 0 (0.0) n (%)
  Dry eye, subjects: 0 (0.0) n (%)
  Dry mouth, subjects: 0 (0.0) n (%)
  Dyspepsia, subjects: 0 (0.0) n (%)
  Excoriation, subjects: 0 (0.0) n (%)
  Headache, subjects: 0 (0.0) n (%)
  Lipase increased, subjects: 0 (0.0) n (%)
  Multiple injuries, subjects: 0 (0.0) n (%)
  Nasal congestion, subjects: 0 (0.0) n (%)
  Noncardiac chest pain, subjects: 0 (0.0) n (%)
  Odynophagia, subjects: 0 (0.0) n (%)
  Overall total TEAEs, subjects: 0 (0.0) n (%)
  Upper respiratory tract infection, subjects: 0 (0.0) n (%)
Part 1, single dose 50 mg
  Abdominal pain, subjects: 0 (0.0) n (%)
  Amylase increased, subjects: 0 (0.0) n (%)
  Application site pruritus (due to ECG stickers), subjects: 0 (0.0) n (%)
  Back pain, number of TEAEs: [1]
  Back pain, subjects: 1 (16.7) n (%)
  Contact dermatitis, number of TEAEs: [2]
  Contact dermatitis, subjects: 2 (33.3) n (%)
  Dizziness, subjects: 0 (0.0) n (%)
  Dry eye, subjects: 0 (0.0) n (%)
  Dry mouth, subjects: 0 (0.0) n (%)
  Dyspepsia, number of TEAEs: [1]
  Dyspepsia, subjects: 1 (16.7) n (%)
  Excoriation, subjects: 0 (0.0) n (%)
  Headache, number of TEAEs: [2]
  Headache, subjects: 1 (16.7) n (%)
  Lipase increased, subjects: 0 (0.0) n (%)
  Multiple injuries, subjects: 0 (0.0) n (%)
  Nasal congestion, subjects: 0 (0.0) n (%)
  Noncardiac chest pain, subjects: 0 (0.0) n (%)
  Odynophagia, subjects: 0 (0.0) n (%)
  Overall total TEAEs, subjects: 3 (50.0) n (%)
  Overall total, number of TEAEs: [6]
  Upper respiratory tract infection, subjects: 0 (0.0) n (%)
Part 1, single dose 100 mg
  Abdominal pain, subjects: 0 (0.0) n (%)
  Amylase increased, subjects: 0 (0.0) n (%)
  Application site pruritus (due to ECG stickers), subjects: 0 (0.0) n (%)
  Back pain, subjects: 0 (0.0) n (%)
  Contact dermatitis, subjects: 0 (0.0) n (%)
  Dizziness, subjects: 0 (0.0) n (%)

Source: patent US12251382B2, “Substituted amino-pyrimidine compound for use in a method for treatment and prevention of multiple sclerosis” (Merck Patent GmbH, priority 2018, dated 2025)
